Earlier results on two compounds are cited in US20220160670A1, “COMPOSITION COMPRISING L-CARNITINE FOR THE TREATMENT OF MALE INFERTILITY” (LABORATOIRE DES GRANIONS, priority 2017, published 2022).

Each structure is given as a SMILES string.

Data set [1] concerns total forward motility of spermatozoa. Conditions: treatment of 6 months; 3 g/day L-carnitine, 3 g/day L-acetylcarnitine, or 2 g/day + 1 g/day combined.
Data set [2] has as its system number and total forward motility of spermatozoa. The following applies: 2 g/day for 2*2 months; patients with 10 to 20 million/ml and total mobility 10% to 30% at inclusion.

For `CC(=O)O[C@H](CC(=O)[O-])C[N+](C)(C)C` [L-acetylcarnitine], the “effect on total forward motility of spermatozoa” value (“effect on total forward motility” for short) in data set [1] is “significantly increases”.
In the case of `C[N+](C)(C)C[C@H](O)CC(=O)[O-]` [L-carnitine], the “effect on total forward motility” value in data set [1] is “significantly increases”. In data set [2], the “effect on number of spermatozoa” value is reported as “increase” and the “effect on total forward motility” value is “increase”.
